Among the data in US7608619B2, “Substituted oxazole compounds with analgesic activity” (Gruenenthal GmbH, priority 2005, dated 2009) are inhibition values, retold here.

The assay addresses T1, human μ-opiate receptor (Homo sapiens, UniProt P35372).
T1 construct: purchased Nen company, Zaventem, Belgium RB-HOM; host or cells: CHO-K1 cells (membrane preparation)
Kind of assay: Affinity for the human μ-opiate receptor ([3H]-naloxone displacement, SPA, CHO-K1 membrane preparation). The settings on record: test substance 1 μmole/l; displacement of 1 nmole/l [3H]-naloxone; percentage inhibition of the specific binding; read-out: μ-opioid receptor, % inhibition [1 μM]. An outline of the steps:
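[3H]-naloxone (1 nmol/l) displacement by SPA with WGA beads, using membranes of CHO-K1 cells expressing the receptor, in 50 mmol/l Tris-HCl with 0.05% azide and 0.06% BSA; 90 min at room temperature. Non-specific binding defined with 25 μmol/l naloxone. Value is % inhibition of specific binding at 1 μmol/l test compound.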

T1 sequence (P35372 whole entry): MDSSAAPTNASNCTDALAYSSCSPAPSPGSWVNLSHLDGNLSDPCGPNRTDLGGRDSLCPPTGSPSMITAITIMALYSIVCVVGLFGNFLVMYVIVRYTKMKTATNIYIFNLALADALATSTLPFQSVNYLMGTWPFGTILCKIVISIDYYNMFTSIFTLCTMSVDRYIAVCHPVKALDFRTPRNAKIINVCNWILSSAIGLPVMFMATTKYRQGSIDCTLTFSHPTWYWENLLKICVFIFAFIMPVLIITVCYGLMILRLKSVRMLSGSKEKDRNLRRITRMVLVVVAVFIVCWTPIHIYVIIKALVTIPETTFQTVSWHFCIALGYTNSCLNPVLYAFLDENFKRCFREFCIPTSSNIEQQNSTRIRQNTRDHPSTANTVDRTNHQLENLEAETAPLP

With `COc1ccc(N2CCN(c3oc(C(CC4CCC(C(c5cccs5)N(C)C)CC4)N4CCN(c5ccc(OC)cc5)CC4)nc3Cc3ccccc3)CC2)cc1` (stereo not drawn) [compound 164, [(4-{2-{4-benzyl-5-[4-(4-methoxyphenyl)-piperazin-1-yl]-oxazol-2-yl}-2-[4-(4-methoxyphenyl)-piperazin-1-yl]-ethyl}-cyclohexyl)-thiophen-2-yl-methyl]-dimethylamine], the inhibition at 1 µM was determined as 93%.
In the case of `COc1ccc(N2CCN(C(CC3CCC(C(c4cccs4)N(C)C)CC3)c3nc(Cc4ccccc4)c(N4CC(C)OC(C)C4)o3)CC2)cc1` (stereo not drawn) [compound 165, [(4-{2-[4-benzyl-5-(2,6-dimethyl-morpholin-4-yl)-oxazol-2-yl]-2-[4-(4-methoxyphenyl)-piperazin-1-yl]-ethyl}-cyclohexyl)-thiophen-2-yl-methyl]-dimethylamine] it was 93%; in that of `COc1ccc(N2CCN(c3oc(C(CC4CCC(C(c5cccs5)N(C)C)CC4)N4CCc5ccccc5C4)nc3Cc3ccccc3)CC2)cc1` (stereo not drawn) [compound 166, ({4-[2-{4-benzyl-5-[4-(4-methoxy-phenyl)-piperazin-1-yl]-oxazol-2-yl}-2-(3,4-dihydro-1H-isoquinolin-2-yl)-ethyl]-cyclohexyl}-thiophen-2-yl-methyl)-dimethylamine], 78%.
